The values that follow come from US12239637B2, “Compositions and methods for treating neurological disorders” (priority 2018, dated 2025).

Common to all, as to type: in vivo, rhesus monkeys
In assay [1] the test system is α-syn. Put plainly: α-Synucleinopathy in the nigra of hemiparkinsonian monkeys (TH and α-syn double-labeling). As to conditions: oral 1 mg/kg body wt/d for 30 d. From the text:
FIG. 5 (A-C). […] Naïve female rhesus monkeys received a right intracarotid injection of MPTP. […] MPTP group of monkeys also received normal banana as control. After 30 d of treatment, nigral (A) sections were double-labeled for TH and α-syn. Total area (B) and integrated density (C) of α-syn bodies were quantified in two sections (two images per section) of each of four monkeys per group. ap<0.001 vs control (MPTP-intact); bp<0.001 vs MPTP-lesion.
(§1) Female rhesus monkeys (6-8 years old; 5-7 kg) were used in this study. All animals were singly housed with a 12-h light/dark cycle. Purine monkey chow and water were available ad libitum. Diets were supplemented with fruit during the testing sessions. The study was performed in accordance with federal guidelines of proper animal care and with the approval of the IACUC. Monkeys were intoxicated with MPTP according to protocol described previously (12-16). Briefly, animals were tranquilized with ketamine (10 mg/kg, i.m.) and then maintained on an anesthetic plane with isoflurane (1-2%). The animals were put in the supine position. […]
(§2) At the end point, monkeys were anesthetized with pentobarbital (25 mg/kg intravenously) and killed via perfusion with 0.9% saline. […] These punches were processed for HPLC analysis (for quantification of neurotransmitters). […]

For assay [2], the system named is hemiparkinsonian monkeys. Put plainly: Behavioral analysis: parkinsonian rating scale (PD scale) and hand reaching task in hemiparkinsonian monkeys. On the procedure:
Female rhesus monkeys (6-8 years old; 5-7 kg) were used in this study. All animals were singly housed with a 12-h light/dark cycle. Purine monkey chow and water were available ad libitum. Diets were supplemented with fruit during the testing sessions. The study was performed in accordance with federal guidelines of proper animal care and with the approval of the IACUC. Monkeys were intoxicated with MPTP according to protocol described previously (12-16). Briefly, animals were tranquilized with ketamine (10 mg/kg, i.m.) and then maintained on an anesthetic plane with isoflurane (1-2%). The animals were put in the supine position. For each injection, a right-sided incision was made along the medial edge of the sternocleidomastoid muscle. The carotid sheath was opened and the common carotid artery, internal jugular vein, and vagus nerves were identified. The common carotid was exposed below the carotid bifurcation. The external carotid artery was then ligated. A 27 gauge butterfly needle was inserted into the common carotid artery in a direction retrograde to blood flow; for each injection, 20 ml of saline containing 3 mg of MPTP-HCl (Sigma) was infused at a rate of 1.33 ml/min (15 min). After the infusion was completed, 3 ml of saline was delivered, and then the incision was closed.
Monkeys displaying hemiparkinsonian symptoms 7 d after the first intracarotid injection were included in the study. […] The control group of hemiparkinsonian monkeys (n=4) received only banana as vehicle.
The animals were trained to a consistent level of performance before intracarotid injection of MPTP. Monkeys were rated thrice a week by an investigator blind to the treatment groups using a parkinsonian rating scale (PD scale) utilized to quantify the clinical status of the monkeys (13-16). The scale included ratings of 10 parkinsonian features (tremor, posture, locomotion, hypokinesia, bradykinesia, balance, fine and gross motor skills, startle response, and freezing). Each test consisted of twelve total trials alternating between arms, six per side. Delaying feeding time until after the task was completed ensured animals' compliance with the test. Data collected included the time taken for the animal to move its hand into the chamber where the fruit was located (reaction time), the time taken to pick up the fruit while the hand was in the chamber (reception time) and the total time taken to move the hand into the chamber, retrieve the fruit and bring the hand back out of the panel and into the cage (total time).
All values are expressed as means±SEM. Differences among means were analyzed by one-way ANOVA or Kruskal-Wallis test (comparison among all groups) and post-hoc pair-wise comparison. In other cases, two sample t tests were also used to compare control vs MPTP and MPTP vs MPTP+maraviroc. For behavioral analysis, one way repeated measure ANOVA models were used. Pair-wise comparisons were conducted with Bonferroni adjustment.

In assay [3] the test system is TH-positive dopaminergic neurons and fibers. Put plainly: TH immunostaining: dopaminergic neurons in the SNpc (stereology) and striatal TH fibers (optical density). As to conditions: oral 1 mg/kg body wt/d for 30 d, lesion side. The procedure:
FIG. 6 (A-C). Oral maraviroc treatment protects dopaminergic neurons in the SNpc of hemiparkinsonian monkeys. Naïve female rhesus monkeys received a right intracarotid injection of MPTP. […] MPTP group of monkeys also received normal banana as control. A) After 30 d of treatment, nigral sections were immunostained for TH. B) A magnified image of TH-stained SNpc is shown. […] All counting were performed by a single investigator blinded to the experimental conditions. ap<0.001 vs MPTP-intact; bp<0.01 vs MPTP-lesion.
FIG. 7 (A-B). Oral maraviroc treatment protects THir fibers in the striatum of hemiparkinsonian monkeys. Naïve female rhesus monkeys received a right intracarotid injection of MPTP. […] MPTP group of monkeys also received normal banana as control. A) After 30 d of treatment, striatal sections were immunostained for TH. B) Optical density of TH fibers in caudate and putamen was calculated by digital image analysis. Six different striatal sections of each monkey were analyzed. ap<0.001 vs MPTP-intact; bp<0.01 vs MPTP-Caudate-lesion; cp<0.01 vs MPTP-Putamen-lesion.
Female rhesus monkeys (6-8 years old; 5-7 kg) were used in this study. […]
as §2

Assay [4] deals with striatal dopamine, DOPAC and HVA. Put plainly: HPLC analysis of striatal neurotransmitters in hemiparkinsonian monkeys. As to conditions: oral 1 mg/kg body wt/d for 30 d. On the procedure:
FIG. 8 (A-E). Maraviroc protects striatal dopamine in hemiparkinsonian monkeys. Naïve female rhesus monkeys received a right intracarotid injection of MPTP. […] MPTP group of monkeys also received normal banana as control. After 30 d of treatment, dopamine levels were measured in dorsomedial caudate (A), ventromedial caudate (B), dorsal putamen (C), ventral putamen (D), and nucleus accumbens (E). HPLC quantification of dopamine was performed by a single investigator blinded to the experimental conditions. Data are means±SEM of four monkeys per group. ap<0.001 vs MPTP-intact; bp<0.001 vs MPTP-lesion.
FIG. 9 (A-E). Maraviroc protects striatal DOPAC and HVA in hemiparkinsonian monkeys. Naïve female rhesus monkeys received a right intracarotid injection of MPTP. […] After 30 d of treatment, levels of DOPAC and HVA were measured in dorsomedial caudate (A), ventromedial caudate (B), dorsal putamen (C), ventral putamen (D), and nucleus accumbens (E). HPLC quantification of DOPAC and HVA was performed by a single investigator blinded to the experimental conditions. […]
as §2
Samples were analyzed for neurotransmitters by an investigator blind to the treatment groups. […]

In assay [5] the test system is CD4+ and CD8+ T cells in the nigra. The assay is described as follows: Infiltration of CD4+ and CD8+ T cells into the nigra of hemiparkinsonian monkeys (immunostaining). As to conditions: oral 1 mg/kg body wt/d for 30 d from 7 d after MPTP; near blood vessel and in deep parenchyma of ventral midbrain.
Text: FIG. 2 (A-E). […] Naïve female rhesus monkeys received a right intracarotid injection of MPTP. […] MPTP group of monkeys also received normal banana as control. After 30 d of treatment, ventral midbrain sections were DAB-stained for CD4 (A, vessel; B, parenchyma). C) Sections were double-labeled for CD4 and TH. CD4-positive cells were counted in two nigral sections (D, within 100 μm around vessel; E, parenchyma within 100 to 200 μm around vessel) of each of four monkeys (n=4) per group. ap<0.001 vs. control; bp<0.01 vs. MPTP. Control represents the intact side of MPTP-intoxicated monkeys.
FIG. 3 (A-D). […] Naïve female rhesus monkeys received a right intracarotid injection of MPTP. […] MPTP group of monkeys also received normal banana as control. After 30 d of treatment, ventral midbrain sections were DAB-stained for CD8 (A, vessel; B, parenchyma). CD8-positive cells were counted in two nigral sections (C, within 100 μm around vessel; D, parenchyma within 100 to 200 μm around vessel) of each of four monkeys (n=4) per group. ap<0.001 vs. control; bp<0.01 vs. MPTP. Control represents the intact side of MPTP-intoxicated monkeys. […]
as §2

In assay [6] the test system is iNOS, Iba1-positive microglia, GFAP-positive astrocytes in the SNpc. Put plainly: Glial inflammation in the SNpc of hemiparkinsonian monkeys (Iba1, GFAP, iNOS immunofluorescence). As to conditions: oral 1 mg/kg body wt/d for 30 d.
Text: FIG. 4 (A-E). […] After 30 d of treatment, nigral sections were double-labeled for Iba1 and iNOS (A) and GFAP and iNOS (B). Cells positive for Iba1 (C), GFAP (D) and iNOS (E) were counted using the olympus microsuite V software in two nigral sections (two images per slide) of each of four monkeys (n=4) per group. ap<0.001 vs. control; bp<0.001 vs MPTP; ns, not significant vs MPTP.
as §1, with “position. For each injection, a right-sided incision was made along the medial edge of the sternocleidomastoid muscle.” for “position.”
For immunofluorescence staining, anti-Iba-1 antibody (1:500), anti-iNOS antibody (1:1000), and anti-GFAP antibody (1:1000) were used. The samples were mounted and observed under an Olympus IX81 fluorescence microscope as described before (17-19).

Where [7] appears, read: PD scale score after treatment, 1 mg/kg body wt/d orally, mean ± SEM, four monkeys.

Marks after values point to notes of the source that are not given here.

As for maraviroc, in assay [1], the “α-syn pathology in the SNpc” value is listed as “almost missing”. In addition, in assay [2] (setting [7]), the “Balance (0-3)” value was 0.57 ± 0.04^a, the “Brady kinesia (0-5)” value is reported as 0.85 ± 0.28^a, the “Defense Reaction (0-2)” value is 0.24 ± 0.07^a and the “Freezing (0-2)” value is on record as 0.39 ± 0.03^a. In assay [2] (setting [7]), the “Gait (0-5)” value is 0.25 ± 0.03^a; the “General (Gross) motor skills (0-3), L Hand” value came out at 0.89 ± 0.05; the “General (Gross) motor skills (0-3), R Hand” value was 0.01 ± 0.00; the “Posture (0-3)” value is on record as 0.39 ± 0.04^a. In addition, in assay [2] (setting [7]), the “Tremor (0-3), L Hand” value is listed as 0.42 ± 0.03^a and the “Tremor (0-3), R Hand” value came out at 0.00 ± 0.00. In addition, the “Total (Sum mean)” value in assay [2] (PD scale total score after treatment, 1 mg/kg body wt/d orally, mean ± SEM, four monkeys) is on record as 4.01 ± 0.40^a. For the same substance, the “functional ability on clinical rating scale and operant motor test” value in assay [2] (oral 1 mg/kg body wt/d for 30 d) was “significantly improved”. For the same substance, the “motor deficits in a hand-reach task” value in assay [2] (oral maraviroc) was “reversed”. The “striatal TH fibers” value in assay [3] (caudate and putamen) is on record as “significantly restored”. For the same substance, in assay [3], the “SNpc TH-positive neurons” value is “significantly restored”. Besides, the “levels of DOPAC and HVA in different parts of striatum” value in assay [4] is recorded as “restored”. For the same substance, the “DA in different parts of striatum” value in assay [4] (caudate, putamen, nucleus accumbens) is “pronounced preservation”. Also, in assay [5], the “infiltration of CD4+ T cells into the nigra” value was “significantly attenuated” and the “infiltration of CD8+ T cells into the nigra” value is reported as “significantly attenuated”. Besides, in assay [6], the “expression of iNOS protein in the SNpc” value is listed as “reduced”. Besides, in assay [6] (GFAP- and Iba1-positive cells), the “number of astrocytes and microglia in the SNpc” value was “did not significantly reduce”.
